What was measured:
[1] = Cytotoxicity assay (MTS, 3 days), LCC6; type: cell-based; conditions: human, LCC6 cells
Protocol: To each well of 96-well plate, 10,000 cells of LCC6, LCC6MDR or L929 were incubated with different concentrations of FM04 (0, 0.4, 1.2, 3.7, 11, 33 and 100 μM). The final volume in each well of 96-well plate was 100 μL and the plate was incubated for 3 days at 37 °C. The cell viability was determined using MTS assay as reported previously.

[2] = In vivo monitoring of FD18 and its metabolites in plasma after I.V. FD18; set-up: species or system SD rats; conditions: after FD18 5 mg/kg I.V.
Protocol: Figure 3 Proposed metabolism pathway of FD18 and its metabolites formed in vivo. (A) metabolism study of FD18 was conducted on human liver microsomes (HLM) and rat liver microsomes (RLM) in vitro. Chemical structure of the 3 metabolites was predicted by LC/QTOF-MS/MS and confirmed by the synthetic compounds (Figure 2E–J). The pathways for biotransformation of FD18 into FM04 was proposed. (B) plasma concentration profile of FD18 and the in vivo formation of metabolites M1, M2 and M3. After I.V. injection of FD18 (5 mg/kg) into […], plasma was collected at 10, 30, 60, 120, 240, 420 and 600 min, respectively. The concentration of FD18 at each time point was determined by UPLC-MS/MS. Its plasma concentration was further quantified with peak area ratio of FD18 against D7-18. […] In vivo formation of metabolites M1, M2 and M3 were monitored and quantified by UPLC-MS/MS with corresponding calibration curve of 14a, FM04 and FM327. Pharmacokinetic parameter AUC was calculated by the pharmacokinetic software-Summit® PK solutions 2.0 (Summit Research Service, Ashland, Wilmington, DE, USA).
FD18 stock solution was freshly prepared in 33% Cremophor EL, 33% ethanol and 33% saline at a concentration of 9.5 mg/mL. FD18 stock solution was then diluted with saline to form a 4 mg/mL working solution for animal injection. SD rats were intravenously (I.V.) administered with FD18 at 5 mg/kg (n = 3). Blood samples (approx. 300 μL) were taken via jugular vein at 10, 30, 60, 120, 240 and 420 min post-administration. Blood samples were centrifuged at 16,100× g for 10 min to obtain plasma. Plasma samples (50 µL) were spiked with 15 μL of internal standard (IS) (D7-NBn, 10 μg/mL). Two hundred microliter of methanol was added for protein precipitation. Samples were centrifuged at 16,100× g for 10 min prior to filtering by 0.22 μm syringe filter for UPLC-MSMS analysis.
The UPLC-MS/MS system consists of an Agilent 1260 infinity UPLC interfaced with a triple quadrupole mass spectrometer (Agilent 6460) equipped with an electrospray ionization source in positive mode. Zorbax Eclipse XDB-C8 (4.6 × 150 mm, 5 µM) was used for separation. The mobile phase for chromatographic separation consisted of methanol + 0.1% formic acid (solvent B) and Milli-Q water + 0.1% formic acid (solvent A) with gradient elution of 30% solvent B to 100% solvent B in 5 min. The elution condition was allowed for equilibrium from the 7th min onward. The analysis time for each injection was 13 min. The flow rate was 0.4 mL/min. The synthetic compound D7-NBn, the deuterated benzyl form of FD18, was used as the internal standard (IS) for the quantification of the three metabolites. Multiple reaction monitoring (MRM) was set to monitor the transitions of D7-NBn [M+H]^+, FD18 [M+H]^+, M1 [M+H]^+, M2 [M+H]^+ and M3 [M+H]^+ at 731.01 > 98.1 m/z, 724.01 > 91.1 m/z, 634.01 > 114 m/z, 416.01 > 91.1 m/z and 327.01 > 239 m/z, respectively. The coefficient of determination (R^2) for 14a, FM04 and FM327 were above 0.99. The dynamic range for the metabolites in the current setting is 78 ng/mL to 2.44 ng/mL.

O=c1cc(-c2ccc(OCCOCCNCc3ccccc3)cc2)oc2ccccc12 [FM04, 2-(4-(2-(2-(benzylamino)ethoxy)ethoxy)phenyl)-4H-chromen-4-one]
IC50 at 3 days [1]: 10.3 ± 0.2 µM
AUC(0-t) ([2]; Sprague-Dawley, rat, iv): 44.5 ng·h/mL
Cmax ([2]; Sprague-Dawley, rat, iv): 11 ng/mL
Tmax ([2]; Sprague-Dawley, rat, iv): 1 h
Normalized AUC (systemic exposure relative to FD18) ([2]; listed as M2): 7%
